Measurements taken from PMC6944458, “Intracellular and in vivo evaluation of imidazo[2,1-b]thiazole-5-carboxamide anti-tuberculosis compounds” (PLoS ONE, 2020).
≈ marks a conversion by molar mass, not a printed value. Where “and” joins values, the source holds several entries; their conditions need not be identical. Equal values may be shown once. Read-outs that look alike come from different tables or passages of the source.

Experiments:
[1] = cited from earlier work
[2] = test system: H37Rv-Mtb; test: MIC against replicating H37Rv-Mtb in liquid media; type: cell-based, Mycobacterium tuberculosis; conditions: for MIC: replicating, 5 days, OD590
[3] = test system: VERO cell line; test: Eukaryotic cytotoxicity (CellTiter-Glo); type: cell-based, African green monkey; conditions: Chlorocebus sabaeus, 48 h, 2-day incubation, read-out: VERO Toxicity IC50
Method: Cytotoxicity was tested against the African green monkey adult kidney cell line (VERO, ATCC CRL-1586) as described. Compounds were tested as 10-point, 3-fold serial dilutions in DMSO (final assay concentration of 1% DMSO) and viability was measured using CellTiter-Glo (Promega). Inhibition curves were fitted using the Levenberg–Marquardt algorithm. IC50 was defined as the concentration required to reduce cell viability by 50% after 2-day incubation.

[4] = test system: M. tuberculosis GC1237 (Mtb-GFP) in Raw 264.7 macrophages; test: Intracellular mycobacterial replication assay in macrophages; type: cell-based; conditions: Mycobacterium tuberculosis, 120 h, 5 days, read-out: MIC, intracellular M. tuberculosis growth in macrophages
[5] = test system: M. tuberculosis GC1237 (Mtb-GFP) in Raw 264.7 macrophages; conditions: cited from earlier work
[6] = cited from earlier work; remark: listed apart in the source
[7] = test system: M. tuberculosis Erdman; test: Chronic Balb/c model of TB infection; type: in vivo, Balb/c mice; conditions: 25 mg/kg
[8] = test system: replicating Mtb; conditions: against three family strains; cited from earlier work
[9] = test system: M. tuberculosis strain H37Rv-LUX; test: microbe, parasite or virus in culture; type: cell-based; conditions: Mycobacterium tuberculosis, read-out: LORA MIC
[10] = test system: murine Raw 264.7 macrophages; conditions: mouse
[11] = physchem; conditions: pH 6.8, aqueous buffer, kinetic from dmso stock
Method: The relative solubility of compounds was determined in microbiological medium using turbidity as a measure [27]. A serial dilution of compounds was prepared in DMSO and then transferred to microbiological medium at pH 6.8.

[12] = in vivo; cited from earlier work
[13] = Mycobacterium tuberculosis, H37RV, 120 h

Row | Structure (SMILES) | MIC [2, 13] [µM] | IC50 [3] [µM] | MIC [4] [µM] | MIC [9] [µM] | solubility [11] [µM] | other results
1 | O=C(/C=C/c1cccs1)N1CCN(Cc2ccc3c(c2)OCO3)CC1 [AX-35] | – | – | – | – | – | MIC [1]: 0.14 μM and 0.05 μg/mL
2 | C[C@H]1COC2(CCN(c3nc(=O)c4cc(C(F)(F)F)cc([N+](=O)[O-])c4s3)CC2)O1 [BTZ043, reference compound] | 0.002 (≈ 0.000863 µg/mL) | > 50 | 0.0078 (≈ 0.00336 µg/mL) | – | – | MIC, intracellular, previous reports [5]: < 0.098 µM
3 | NC(=O)c1sc(N2CCOCC2)cc1OCCc1ccc(OC(F)(F)F)cc1 [Compound 6] | – | – | – | – | – | MIC [6]: 0.2 µM (≈ 0.0833 µg/mL)
4 | NNC(=O)c1ccncc1 [INH, Isoniazid] | – | – | – | – | – | Log reduction vs Control (Lung) ([7]; 4 weeks): 1.73 log10 CFU; Log reduction vs Control (Spleen) ([7]; 4 weeks): 2.87 log10 CFU; Lung Log10 CFU ±SEM ([7]; ERDMAN, 672 h): 4.06 ± 0.11 Log10 CFU; Spleen Log10 CFU ±SEM ([7]; ERDMAN, 672 h): 2.13 ± 0.12 Log10 CFU
5 | Cc1c(OCC(F)(F)F)ccnc1CSc1nc2ccccc2[nH]1 [LPZS] | – | – | – | – | – | IC90 [8]: 1100 to 1700 nM
6 | Cc1cn2c(C(=O)NCc3ccc4c(c3)CCO4)c(C)nc2s1 [ND-11459, N-((2,3-Dihydrobenzofuran-5-yl)methyl)-2,6-dimethylimidazo[2,1-b]thiazole-5-carboxamide] | – | > 50 | 1.25 to 2.5 (≈ 0.409 to 0.819 µg/mL) | 12.4 (≈ 4.06 µg/mL) | ≥ 200 | Macrophage toxicity concentration relative to MIC [10]: 4 and 8-fold higher than their MIC
7 | CCc1nc2sc(C)cn2c1C(=O)NCc1ccc2c(c1)CCO2 [ND-11503, N-((2,3-Dihydrobenzofuran-5-yl)methyl)-6-ethyl-2-methylimidazo[2,1-b]thiazole-5-carboxamide] | 0.25 to 0.54 (≈ 0.0854 to 0.184 µg/mL) | > 50 | 1.25 to 2.5 (≈ 0.427 to 0.854 µg/mL) | 2.7 (≈ 0.922 µg/mL) | ≥ 200 | MIC [2]: 0.25 µM (≈ 0.0854 µg/mL)
8 | Cc1cn2c(C(=O)NCc3ccc(Oc4cccc(C(F)(F)F)c4)cc3)c(C)nc2s1 [ND-11564, 2,6-Dimethyl-N-(4-(3-(trifluoromethyl)phenoxy)benzyl)imidazo[2,1-b]thiazole-5-carboxamide] | 0.16 (≈ 0.0713 µg/mL) | > 50 | 0.25 (≈ 0.111 µg/mL) | 9.68 (≈ 4.31 µg/mL) | 100 (≈ 44.5 µg/mL) | MIC [2]: 0.16 µM (≈ 0.0713 µg/mL); Macrophage toxicity concentration relative to MIC [10]: 4 and 8-fold higher than their MIC
9 | Cc1cn2c(C(=O)Nc3ccc(Oc4cccc(C(F)(F)F)c4)cc3)c(C)nc2s1 [ND-11566, 2,6-Dimethyl-N-(4-(3-(trifluoromethyl)phenoxy)phenyl)imidazo[2,1-b]thiazole-5-carboxamide] | 9.1 (≈ 3.93 µg/mL) | > 50 | – | > 100 | 50 (≈ 21.6 µg/mL) | Fold difference in potency, anilide vs benzylic amide ND-11564 ([2]; MIC H37Rv-Mtb comparison): > 50 fold; MIC [2]: 9.10 µM (≈ 3.93 µg/mL)
10 | Cc1cn2c(C(=O)NCc3ccc(N4CCS(=O)(=O)CC4)c(F)c3)c(C)nc2s1 [ND-11903, N-(4-(1,1-Dioxidothiomorpholino)-3-fluorobenzyl)-2,6-dimethylimidazo[2,1-b]thiazole-5-carboxamide] | 3.7 (≈ 1.62 µg/mL) | > 50 | – | 200 (≈ 87.3 µg/mL) | > 200 | Fold less active than the most potent lipophilic compounds (ND-11543, ND-11564) ([2]; MIC H37Rv-Mtb comparison): > 100 fold
11 | Cc1cn2c(C(=O)NCc3ccc(N4CCS(=O)(=O)CC4)cc3)c(C)nc2s1 [ND-12015, N-(4-(1,1-Dioxidothiomorpholino)benzyl)-2,6-dimethylimidazo[2,1-b]thiazole-5-carboxamide] | 13 (≈ 5.44 µg/mL) | > 50 | – | – | 200 (≈ 83.7 µg/mL) | Fold less active than the most potent lipophilic compounds (ND-11543, ND-11564) ([2]; MIC H37Rv-Mtb comparison): > 100 fold
12 | CCc1nc2sc(C)cn2c1C(=O)NCc1ccc(Oc2cccc(C(F)(F)F)c2)nc1 [ND-12024, 6-Ethyl-2-methyl-N-((6-(3-(trifluoromethyl)phenoxy)yridine-3-yl)methyl)imidazo[2,1-b]thiazole-5-carboxamide] | 0.21 (≈ 0.0967 µg/mL) | > 50 | – | – | 50 (≈ 23 µg/mL) | –
13 | Cc1cn2c(C(=O)NCc3ccc(Oc4cccc(C(F)(F)F)c4)nc3)c(C)nc2s1 [ND-12025, 2,6-Dimethyl-N-((6-(3-(trifluoromethyl)phenoxy)yridine-3-yl)methyl)imidazo[2,1-b]thiazole-5-carboxamide] | 0.33 (≈ 0.147 µg/mL) | > 50 | – | – | 100 (≈ 44.6 µg/mL) | –
14 | CCc1nc2ccc(Cl)cn2c1C(=O)NCc1ccc(N2CCC(c3ccc(OC(F)(F)F)cc3)CC2)cc1 [Q203] | 0.005 (≈ 0.00279 µg/mL) | > 50 | 0.0078 (≈ 0.00434 µg/mL) | 1.3 (≈ 0.724 µg/mL) | 100 (≈ 55.7 µg/mL) | MIC, intracellular, previous reports [5]: < 0.098 µM; AUC 0–24 [12]: 44,100 ng·hr/mL
